In experiment [1] the target is T1, D2 -like (Rabbit Ear Artery) (Oryctolagus cuniculus, UniProt G1T1Q0).
T1 construct: the central ear artery was dissected into 3 mm long rings; from tissue; host or cells: rabbit central ear artery rings (male New Zealand rabbits), electrically stimulated
Kind of experiment: D2-like activity in the Rabbit Ear Artery (REA) test. Set-up: species or system New Zealand rabbit. The note with it: agonist activity at the peak of the effect; electrically stimulated. As to the method: Arterial rings were prepared according to the method described by Steinsland et al., Science, 1978, 443, 199, modified as follows. Male New Zealand rabbits weighing 2.5-3 Kg were sacrificed by intravenous injection of an excess of pentobarbital sodium and exsanguinated. The two ears were taken away and the central ear artery was dissected into 3 mm long rings.
These preparations were set up in a 25 ml organ bath containing Krebs solution (mM/l): NaCl 118, KCl 4.7, CaCl2 2.5, MgSO4 1.2, NaHCO3 25, KH2 PO4 1.2, glucose 11.1, equilibrated with 95% 02 -5% CO2 and maintained at 35°±1° C.
Krebs solution was medicated with EDTA (10 μM) to prevent cathecolamine oxydation, desipramine (0.1 μM) and corticosterone (30 μM), to block neuronal and extraneuronal cathecolamine uptake. The preparations were electrically stimulated (10 Hz, 1 msec, 40-80 mA, 500 msec duration) at 5 minutes intervals.
(§1) The tested compounds were cumulatively administered.
(§2) Ref. A was used as reference substance.
(§3) Agonist activity evaluated at the peak of the effect and expressed as potency ratio (EC50 of Ref. A/EC50 of tested compound) is reported in table 2.

In experiment [2] the test system is D1 -like (Rabbit Splenic Artery). Kind of experiment: D1-like activity in the Rabbit Splenic Artery (RSA) test. Conditions: agonist activity at the peak of the effect; contracted with U46619 0.1 μM. The method, then:
Arterial rings were prepared according to Semeraro et al., Naunyn. Schmied. Arch. Pharmacol., 1990, 342, 539.
The arterial preparations were contracted with U46619 (9,11-di-deoxy-11α,9α-epoxy-methanoprostaglandin F2α) at the submaximal concentration 0.1 μM.
as §1, §2, §3

This is an account of results in patent US5674909A, “Derivatives of 2-amino-1,2,3,4-tetrahydronaphthalene active on the cardiovascular system” (Zambon Group, priority 1994, dated 1997).

Each structure is given as a SMILES string.

T1 sequence (G1T1Q0 1-443): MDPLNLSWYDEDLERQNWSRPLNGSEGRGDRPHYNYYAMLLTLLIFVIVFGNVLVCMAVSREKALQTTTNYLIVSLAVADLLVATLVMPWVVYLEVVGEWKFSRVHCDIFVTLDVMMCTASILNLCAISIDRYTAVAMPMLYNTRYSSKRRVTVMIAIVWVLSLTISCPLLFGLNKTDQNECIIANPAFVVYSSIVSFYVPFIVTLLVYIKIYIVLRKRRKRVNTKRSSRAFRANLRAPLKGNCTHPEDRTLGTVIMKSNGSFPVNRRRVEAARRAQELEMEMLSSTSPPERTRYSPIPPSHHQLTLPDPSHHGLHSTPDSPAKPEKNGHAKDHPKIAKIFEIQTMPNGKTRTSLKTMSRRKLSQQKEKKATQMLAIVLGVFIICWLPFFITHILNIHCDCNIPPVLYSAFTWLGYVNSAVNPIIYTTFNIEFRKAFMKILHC

For the molecule `Br.Br.CCCN(CCCCCCNCCc1ccc(O)c(Cl)c1)[C@H]1CCc2c(ccc(O)c2O)C1` [Compound 11, (S)-N-propyl-N-[6-[2-(3-chloro-4-hydroxyphenyl)ethylamino]hexyl]-5,6-dihydroxy-1,2,3,4-tetrahydro-2-naphthylamine dihydrobromide], in experiment [1], the “D2 -like (REA) potency ratio (EC50 of Ref. A/EC50 of tested compound)” value (“D2 -like (REA) potency ratio” for short) worked out at 4. The “D1 -like (RSA) potency ratio (EC50 of Ref. A/EC50 of tested compound)” value (“D1 -like (RSA) potency ratio” for short) in experiment [2] turned out to be 25.
Regarding `Br.Br.CCCN(CCCCCCNCCc1ccc(O)c([N+](=O)[O-])c1)[C@H]1CCc2c(ccc(O)c2O)C1` [Compound 12, (S)-N-propyl-N-[6-[2-(3-nitro-4-hydroxyphenyl)ethylamino]hexyl]-5,6-dihydroxy-1,2,3,4-tetrahydro-2-naphthylamine dihydrobromide], the “D1 -like (RSA) potency ratio” value in experiment [2] is on record as 5.
With `Br.Br.CCCN(CCCCCCNCCc1ccc(O)c(C)c1)[C@H]1CCc2c(ccc(O)c2O)C1` [Compound 14, (S)-N-propyl-N-[6-[2-(3-methyl-4-hydroxyphenyl)ethylamino]hexyl]-5,6-dihydroxy-1,2,3,4-tetrahydro-2-naphthylamine dihydrobromide], the “D2 -like (REA) potency ratio” value in experiment [1] was determined as 3. Further, in experiment [2], the “D1 -like (RSA) potency ratio” value was 33.
Take `Br.Br.CCCN(CCCCCCNCCc1cc(O)c(C)c(O)c1)[C@H]1CCc2c(ccc(O)c2O)C1` [Compound 17, (S)-N-propyl-N-[6-[2-(3,5-dihydroxy-4-methylphenyl)ethylamino]hexyl]-5,6-dihydroxy-1,2,3,4-tetrahydro-2-naphthylamine dihydrobromide]: the “D2 -like (REA) potency ratio” value in experiment [1] was 25. The “D1 -like (RSA) potency ratio” value in experiment [2] is 12.
The matching figures for `Br.Br.CCCN(CCCCCCNCCc1ccc2[nH]c(=O)sc2c1)[C@H]1CCc2c(ccc(O)c2O)C1` [Compound 18, (S)-N-propyl-N-[6-[2-(2-oxo-3H-1,3-benzothiazol-6-yl)ethylamino]hexyl]-5,6-dihydroxy-1,2,3,4-tetrahydro-2-naphthylamine dihydrobromide]: 5 and 50.
Take `Br.Br.CCCN(CCCCCCNCCc1ccc2sc(=O)[nH]c2c1)[C@H]1CCc2c(ccc(O)c2O)C1` [Compound 19, (S)-N-propyl-N-[6-[2-(2-oxo-3H-1,3-benzothiazol-5-yl)ethylamino]hexyl]-5,6-dihydroxy-1,2,3,4-tetrahydro-2-naphthylamine dihydrobromide]: in experiment [1], the “D2 -like (REA) potency ratio” value was 4. The “D1 -like (RSA) potency ratio” value in experiment [2] is 11.
For `Br.Br.CCCN(CCCCCCNCCc1cc(O)cc(Cl)c1)[C@H]1CCc2c(ccc(O)c2O)C1` [Compound 21, (S)-N-propyl-N-[6-[2-(3-chloro-5-hydroxyphenyl)ethylamino]hexyl]-5,6-dihydroxy-1,2,3,4-tetrahydro-2-naphthylamine dihydrobromide] the same measures were 1.7 and 3.
With `CCCN(CCCCCCNCCc1ccc(O)c(OC)c1)[C@H]1CCc2c(ccc(O)c2O)C1.Cl.Cl` [Compound 26, (S)-N-propyl-N-[6-[2-(3-methoxy-4-hydroxyphenyl)ethylamino]hexyl]-5,6-dihydroxy-1,2,3,4-tetrahydro-2-naphthylamine dihydrochloride], the “D2 -like (REA) potency ratio” value in experiment [1] stood at 10. For the same molecule, in experiment [2], the “D1 -like (RSA) potency ratio” value was 33.
For `CCCN(CCCCCCNCCc1ccc(OC)c(O)c1)[C@H]1CCc2c(ccc(O)c2O)C1.Cl.Cl` [Compound 27, (S)-N-propyl-N-[6-[2-(3-hydroxy-4-methoxyphenyl)ethylamino]hexyl]-5,6-dihydroxy-1,2,3,4-tetrahydro-2-naphthylamine dihydrochloride] the same measures were 4 and 25.
For `CCCN(CCCCCCNCCc1ccc(O)c(N)c1)[C@H]1CCc2c(ccc(O)c2O)C1.Cl.Cl.Cl` [Compound 29, (S)-N-propyl-N-[6-[2-(3-amino-4-hydroxyphenyl)ethylamino]hexyl]-5,6-dihydroxy-1,2,3,4-tetrahydro-2-naphthylamine trihydrochloride] the same measures were 1.7 and 50.
As to `CCCN(CCCCCCNCCc1ccc(NS(C)(=O)=O)cc1)[C@H]1CCc2c(ccc(O)c2O)C1.Cl.Cl` [Compound 31, (S)-N-propyl-N-[6-[2-(4-methylsulphonylaminophenyl)ethylamino]hexyl]-5,6-dihydroxy-1,2,3,4-tetrahydro-2-naphthylamine dihydrochloride], in experiment [1], the “D2 -like (REA) potency ratio” value is 5. Moreover, the “D1 -like (RSA) potency ratio” value in experiment [2] was 100.
The matching figures for `CCCN(CCCCCCNCCc1ccc(NC(N)=O)cc1)[C@H]1CCc2c(ccc(O)c2O)C1.Cl.Cl` [Compound 32, (S)-N-propyl-N-[6-[2-(4-aminocarbonylaminophenyl)ethylamino]hexyl]-5,6-dihydroxy-1,2,3,4-tetrahydro-2-naphthylamine dihydrochloride]: 10 and 33.
For `CCCN(CCCCCCNCCc1ccc(NC(C)=O)cc1)[C@H]1CCc2c(ccc(O)c2O)C1.Cl.Cl` [Compound 33, (S)-N-propyl-N-[6-[2-(4-acetylaminophenyl)ethylamino]hexyl]-5,6-dihydroxy-1,2,3,4-tetrahydro-2-naphthylamine dihydrochloride] the same measures were 5 and 5.
The matching figures for `CCCN(CCCCCCNCCc1ccc(C(=O)OC)cc1)[C@H]1CCc2c(ccc(O)c2O)C1.Cl.Cl` [Compound 35, (S)-N-propyl-N-[6-[2-(4-methoxycarbonylphenyl)ethylamino]hexyl]-5,6-dihydroxy-1,2,3,4-tetrahydro-2-naphthylamine dihydrochloride]: 0.4 and 2.
As for `CCCN(CCCCCCNCCc1ccc(CO)cc1)[C@H]1CCc2c(ccc(O)c2O)C1.Cl.Cl` [Compound 36, (S)-N-propyl-N-[6-[2-(4-hydroxymethylphenyl)ethylamino]hexyl]-5,6-dihydroxy-1,2,3,4-tetrahydro-2-naphthylamine dihydrochloride], the “D2 -like (REA) potency ratio” value in experiment [1] is 12. Moreover, in experiment [2], the “D1 -like (RSA) potency ratio” value is reported as 4.5.
For `CCCN(CCCCCCNCCc1ccc(C(N)=O)cc1)[C@H]1CCc2c(ccc(O)c2O)C1.Cl.Cl` [Compound 37, (S)-N-propyl-N-[6-[2-(4-carbamoylphenyl)ethylamino]hexyl]-5,6-dihydroxy-1,2,3,4-tetrahydro-2-naphthylamine dihydrochloride] the same measures were 5 and 5.
For `CCCN(CCCCCCNCCc1ccc(S(=O)(=O)O)cc1)[C@H]1CCc2c(ccc(O)c2O)C1.Cl.Cl` [Compound 39, (S)-N-propyl-N-[6-[2-(4-sulphophenyl)ethylamino]hexyl]-5,6-dihydroxy-1,2,3,4-tetrahydro-2-naphthylamine dihydrochloride] the same measures were 3 and 2.5.
Turning to `CCCN(CCCCCCNCCc1ccc2nc(N)sc2c1)[C@H]1CCc2c(ccc(O)c2O)C1.Cl.Cl.Cl` [Compound 40, (S)-N-propyl-N-[6-[2-(2-amino-1,3-benzothiazol-6-yl)ethylamino]hexyl]-5,6-dihydroxy-1,2,3,4-tetrahydro-2-naphthylamine trihydrochloride], the “D2 -like (REA) potency ratio” value in experiment [1] is given as 3. In experiment [2], the “D1 -like (RSA) potency ratio” value worked out at 14.
